The results in this text go back to US20230279020A9, “CARM1 INHIBITORS AND USES THEREOF” (Epizyme, Inc., priority 2013, published 2023).

For the test, the target named is Human CARM1 (PRMT4) (Homo sapiens (Human), UniProt Q86X55). In words: CARM1 enzyme assay on peptide substrate (3H-SAM Flashplate). The conditions noted are these: Biochemical potencies, classification codes; read-out: Biochem IC50.
Sequence of Human CARM1 (PRMT4) (Q86X55 other isoform, or with tags, fused parts or gaps isoform Q86X55-1): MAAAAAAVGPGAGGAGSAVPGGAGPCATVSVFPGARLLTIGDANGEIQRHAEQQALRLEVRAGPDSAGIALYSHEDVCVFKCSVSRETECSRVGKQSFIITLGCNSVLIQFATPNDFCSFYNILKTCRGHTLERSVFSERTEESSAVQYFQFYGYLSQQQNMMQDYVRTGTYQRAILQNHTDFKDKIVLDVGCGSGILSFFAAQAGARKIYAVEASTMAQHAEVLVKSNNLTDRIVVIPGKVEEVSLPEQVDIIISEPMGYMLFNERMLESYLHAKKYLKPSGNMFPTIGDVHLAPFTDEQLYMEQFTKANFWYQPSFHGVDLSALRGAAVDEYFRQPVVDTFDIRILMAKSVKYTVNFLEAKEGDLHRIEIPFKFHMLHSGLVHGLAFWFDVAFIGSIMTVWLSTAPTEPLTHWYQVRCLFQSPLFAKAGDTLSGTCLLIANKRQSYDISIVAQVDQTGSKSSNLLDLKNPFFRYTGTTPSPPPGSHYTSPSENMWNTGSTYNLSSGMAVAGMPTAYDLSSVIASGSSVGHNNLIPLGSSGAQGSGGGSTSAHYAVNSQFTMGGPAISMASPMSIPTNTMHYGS
With `CCS(=O)(=O)N1CCC(Nc2nc(-c3cccc(OCC(O)CNC)c3)nc(-c3c(C)noc3C)c2C)CC1` (stereo not drawn) [Example 168-1a], the IC50 (usually the concentration needed to halve the response being measured) is below 100 nM.
Take `CNC[C@@H](O)COc1ccc(Cl)c(-c2nc(-c3c(C)noc3C)c(Cl)c(N3Cc4cccnc4C3)n2)c1` [Example 168-3]: the IC50 is below 100 nM.
The figure for `CNC[C@H](O)COc1cccc(-c2nc(NC3CCN(C(=O)OC)CC3)c(C)c(-c3c(C)noc3C)n2)c1` [Example 169-1a] is below 100 nM.
The figure for `CNC[C@@H](O)COc1ccc(Cl)c(-c2nc(N[C@H]3CCN(C(=O)OC)[C@@H](C)C3)c(C)c(-c3c(C)noc3C)n2)c1` [Example 169-3] is below 100 nM.
To `CNC[C@@H](O)COc1cccc(-c2nc(NC3CCN(C(=O)OC)CC3)c(C)c(-c3c(C)noc3C)n2)c1` [Example 170-1a] belongs below 100 nM; to `CNC[C@@H](O)COc1ccc(Cl)c(-c2nc(N[C@H]3CCN(C4CC4)[C@@H](C)C3)c(C)c(-c3c(C)noc3C)n2)c1` [Example 170-3], below 100 nM; to `CNCC(O)COc1cccc(-c2nc(NCC3CN(C)CCO3)c(C)c(-c3c(C)noc3C)n2)c1` (stereo not drawn) [Example 171-1a], below 100 nM.
Turning to `Cc1noc(C)c1-c1nc(-c2cc(OC[C@H](O)CN(C)C)ccc2Cl)nc(N[C@H]2CCN(C3CC3)[C@@H](C)C2)c1C` [Example 171-3], the IC50 was below 100 nM.
The figure for `CCOC(=O)N1CCC(N(C)c2cc(-c3c(C)noc3C)nc(-c3cccc(OCC(O)CNC)c3)n2)CC1` (stereo not drawn) [Example 172-1a] is below 100 nM.
To `CNC[C@@H](O)COc1ccc(Cl)c(-c2nc(N[C@H]3C[C@@H](C)O[C@@H](C)C3)c(C)c(-c3c(C)noc3C)n2)c1` [Example 172-3] belongs below 100 nM; to `CNC[C@@H](O)COc1ccc(Cl)c(-c2nc(N[C@H]3C[C@@H](C)O[C@@H](C)C3)c(Cl)c(-c3c(C)noc3C)n2)c1` [Example 173-3], below 100 nM.
Turning to `CNCC(O)COc1cccc(-c2nc(-c3c(C)noc3C)cc(N3CCN(CC(F)F)[C@H](C)C3)n2)c1` (stereo partly drawn) [Example 174-1a], the IC50 was below 100 nM.
To `CNC[C@@H](O)COc1ccc(Cl)c(-c2nc(-c3c(C)noc3C)c(C)c(N3CCc4ccncc43)n2)c1` [Example 174-3] belongs below 100 nM; to `CNCC(O)COc1cccc(-c2nc(-c3c(C)noc3C)cc(N3CCN(C)[C@H](C)C3)n2)c1` (stereo partly drawn) [Example 175-1a], below 100 nM.
To `CNC[C@@H](O)COc1ccc(Cl)c(-c2nc(-c3c(C)noc3C)c(C)c(N3CC4(CCN(C(=O)OC)C4)C3)n2)c1` [Example 175-3] belongs below 100 nM; to `CNCC(O)COc1cccc(-c2nc(-c3c(C)noc3C)c(C)c(N3CCO[C@@H](CN(C)C(=O)N(C)C)C3)n2)c1` (stereo partly drawn) [Example 176-1a], below 100 nM.
Turning to `CNC[C@@H](O)COc1ccc(Cl)c(-c2nc(-c3c(C)noc3C)c(C)c(N3CC4(CCN(C5CC5)C4)C3)n2)c1` [Example 176-3], the half-maximal inhibitory concentration (IC50) is below 100 nM.
The figure for `CNCC(O)COc1cccc(-c2nc(-c3c(C)noc3C)c(C)c(N3CCC[C@@H](NC)C3)n2)c1` (stereo partly drawn) [Example 177-1a] is below 100 nM.
To `CNC[C@@H](O)COc1ccc(Cl)c(-c2nc(-c3c(C)noc3C)c(C)c(N3CCC4(CN(C(=O)OC)C4)C3)n2)c1` [Example 177-3] belongs below 100 nM; to `CC[C@H]1CN(c2nc(-c3cccc(OCC(O)CNC)c3)nc(-c3c(C)noc3C)c2C)CCN1C1CC1` (stereo partly drawn) [Example 178-1a], below 100 nM.
The figure for `CNC[C@@H](O)COc1ccc(Cl)c(-c2nc(-c3c(C)noc3C)c(C)c(N3CCC4(C3)CN(C3CC3)C4)n2)c1` [Example 178-3] is below 100 nM; for `CNCC(O)COc1cccc(-c2nc(-c3c(C)noc3C)c(C)c(N3CCC4(CC3)CN(S(C)(=O)=O)C4)n2)c1` (stereo not drawn) [Example 179-1a] it is below 100 nM.
Consider `CNC[C@@H](O)COc1ccc(Cl)c(-c2nc(N[C@@H]3CO[C@H](C)C3)c(C)c(-c3c(C)noc3C)n2)c1` [Example 179-3], for which the half-maximal inhibitory concentration (IC50) was below 100 nM.
The figure for `CNC[C@@H](O)COc1ccc(Cl)c(-c2nc(N[C@@H]3CO[C@H](C)C3)c(Cl)c(-c3c(C)noc3C)n2)c1` [Example 180-3] is below 100 nM.
To `CNCC(O)COc1cccc(-c2nc(OC3CCOCC3)c(C)c(-c3c(C)noc3C)n2)c1` (stereo not drawn) [Example 181-1a] belongs below 100 nM.
To `CNC[C@@H](O)COc1ccc(Cl)c(-c2nc(N[C@@H]3CO[C@@H](C)C3)c(Cl)c(-c3c(C)noc3C)n2)c1` [Example 181-3] belongs below 100 nM; to `CNCC(O)COc1cccc(-c2nc(OCC3CCOCC3)c(C)c(-c3c(C)noc3C)n2)c1` (stereo not drawn) [Example 182-1a], below 100 nM; to `CNC[C@@H](O)COc1ccc(Cl)c(-c2nc(N[C@@H]3C[C@@H](C)O[C@@H](C)C3)c(C)c(-c3c(C)noc3C)n2)c1` [Example 182-3], below 100 nM.
Turning to `CNC[C@@H](O)COc1cccc(-c2nc(NCC3CCOCC3)c(C)c(-c3c(C)noc3C)n2)c1` [Example 183-1a], the IC50 was below 100 nM.
To `CNC[C@@H](O)COc1ccc(Cl)c(-c2nc(N[C@@H]3C[C@@H](C)O[C@@H](C)C3)c(Cl)c(-c3c(C)noc3C)n2)c1` [Example 183-3] belongs below 100 nM; to `CNCC(O)COc1cccc(-c2nc(NCC3CCN(C(=O)OC)CC3)c(C)c(-c3c(C)noc3C)n2)c1` (stereo not drawn) [Example 184-1a], below 100 nM.
The figure for `CNC[C@@H](O)COc1ccc(Cl)c(-c2nc(-c3c(C)noc3C)c(C)c(N3CC(F)(F)C3)n2)c1` [Example 184-3] is below 100 nM; for `CNCC(O)COc1cccc(-c2nc(NC3CCN(C4CC4)CC3)c(C)c(-c3c(C)noc3C)n2)c1` (stereo not drawn) [Example 185-1a] it is below 100 nM.
The figure for `CNC[C@@H](O)COc1ccc(F)c(-c2nc(-c3c(C)noc3C)c(C)c(N3Cc4cc(Cl)cnc4C3)n2)c1` [Example 185-3] is below 100 nM; for `CNCC(O)COc1cccc(-c2nc(NC3CCN(C(=O)OC)C3)c(C)c(-c3c(C)noc3C)n2)c1` (stereo not drawn) [Example 186-1a] it is below 100 nM; for `CNC[C@@H](O)COc1ccc(Cl)c(-c2nc(-c3c(C)noc3C)c(C)c(N3C[C@H]4COC[C@H]4C3)n2)c1` [Example 186-3] it is below 100 nM.
As to `CNCC(O)COc1ccc(Cl)c(-c2nc(NC3CCN(C(=O)OC)CC3)c(Cl)c(-c3c(C)noc3C)n2)c1` (stereo not drawn) [Example 187-1a], the IC50 is below 100 nM.
For `CNC[C@@H](O)COc1ccc(Cl)c(-c2nc(-c3c(C)noc3C)c(C)c(N3CCOC3=O)n2)c1` [Example 187-3], the IC50 was below 100 nM.
The figure for `CNCC(O)COc1cccc(-c2nc(NC3CCN(CC(F)F)CC3)c(C)c(-c3c(C)noc3C)n2)c1` (stereo not drawn) [Example 188-1a] is below 100 nM; for `CNC[C@@H](O)COc1ccc(Cl)c(-c2nc(NC3CC(F)C3)c(C)c(-c3c(C)noc3C)n2)c1` (stereo partly drawn) [Example 188-3] it is below 100 nM.
On to `CCOC(=O)N1CCC(Nc2nc(-c3cccc(OCC(O)CNC)c3)nc(-c3c(C)noc3C)c2C)CC1` (stereo not drawn) [Example 189-1a], for which the IC50 is below 100 nM.
To `CNC[C@@H](O)COc1ccc(Cl)c(-c2nc(NC3CC(F)(F)C3)c(C)c(-c3c(C)noc3C)n2)c1` [Example 189-3] belongs below 100 nM; to `CCOC(=O)N1CCCC(Nc2nc(-c3cccc(OCC(O)CNC)c3)nc(-c3c(C)noc3C)c2C)C1` (stereo not drawn) [Example 190-1a], below 100 nM; to `CNC[C@@H](O)COc1ccc(Cl)c(-c2nc(-c3c(C)noc3C)c(C)c(N3Cc4cncnc4C3)n2)c1` [Example 190-3], below 100 nM.
Take `CCOC(=O)N1CCC(CNc2nc(-c3cccc(OCC(O)CNC)c3)nc(-c3c(C)noc3C)c2C)CC1` (stereo not drawn) [Example 191-1a]: the IC50 was below 100 nM.
The figure for `CCO[C@@H]1CCC[C@H]1Nc1nc(-c2cc(OC[C@H](O)CNC)ccc2F)nc(-c2c(C)noc2C)c1C` [Example 191-3] is below 100 nM; for `CCS(=O)(=O)N1CCC(CNc2nc(-c3cccc(OCC(O)CNC)c3)nc(-c3c(C)noc3C)c2C)CC1` (stereo not drawn) [Example 192-1a] it is below 100 nM; for `CNC[C@@H](O)COc1ccc(Cl)c(-c2nc(-c3c(C)noc3C)c(C)c(N3Cc4nc(C)sc4C3)n2)c1` [Example 192-3] it is below 100 nM.
The figure for `CNCC(O)COc1cccc(-c2nc(NCC3CCCN(CC(F)F)C3)c(C)c(-c3c(C)noc3C)n2)c1` (stereo not drawn) [Example 193-1a] is below 100 nM; for `CCOC(=O)N1CCCC(CNc2nc(-c3cccc(OCC(O)CNC)c3)nc(-c3c(C)noc3C)c2C)C1` (stereo not drawn) [Example 194-1a] it is below 100 nM; for `CNC[C@@H](O)COc1ccc(Cl)c(-c2nc(N[C@@H]3CCN(C)C[C@@H]3F)c(C)c(-c3c(C)noc3C)n2)c1` [Example 194-3] it is below 100 nM.
To `CNCC(O)COc1cccc(-c2nc(NC3CCN(CC(F)F)C3)c(C)c(-c3c(C)noc3C)n2)c1` (stereo not drawn) [Example 195-1a] belongs below 100 nM; to `CNC[C@@H](O)COc1ccc(Cl)c(-c2nc(N[C@H]3CCN(C4CC4)C[C@H]3F)c(Cl)c(-c3c(C)noc3C)n2)c1` [Example 195-3], below 100 nM; to `CCOC(=O)N1CCC(Nc2nc(-c3cccc(OCC(O)CNC)c3)nc(-c3c(C)noc3C)c2C)C1` (stereo not drawn) [Example 196-1a], below 100 nM.
For `CNC[C@@H](O)COc1ccc(Cl)c(-c2nc(N[C@H]3CCO[C@H](C)C3)c(C)c(-c3c(C)noc3C)n2)c1` [Example 196-3], the IC50 is below 100 nM.
The figure for `CCS(=O)(=O)N1CCC(Nc2nc(-c3cccc(OCC(O)CNC)c3)nc(-c3c(C)noc3C)c2C)C1` (stereo not drawn) [Example 197-1a] is below 100 nM.
The figure for `CNC[C@@H](O)COc1ccc(Cl)c(-c2nc(N[C@H]3CCO[C@H](C)C3)c(Cl)c(-c3c(C)noc3C)n2)c1` [Example 197-3] is below 100 nM; for `CNCC(O)COc1cccc(-c2nc(NC3CCCN(S(C)(=O)=O)C3)c(C)c(-c3c(C)noc3C)n2)c1` (stereo not drawn) [Example 198-1a] it is below 100 nM.
The figure for `CNC[C@@H](O)COc1ccc(Cl)c(-c2nc(N[C@H]3CO[C@H](C)C3)c(C)c(-c3c(C)noc3C)n2)c1` [Example 198-3] is below 100 nM.
`CNCC(O)COc1cccc(-c2nc(-c3c(C)noc3C)c(C)c(N3C[C@H](C)O[C@@H](C)C3)n2)c1` (stereo partly drawn) [Example 199-1a]: the IC50 was below 100 nM.
